Measured values: patent US20050215548A1 (Cyclacel Limited, priority 2002, published 2005)

What was measured:
Lovo = assay: 72-h MTT cytotoxicity assay, Lovo; format: cell-based; conditions: Homo sapiens, Colon adenocarcinoma, read-out: Anti-proliferative activity, 72-h MTT IC50
Method: (§1) Representative bisarylsulfonamide compounds were tested on a panel of transformed and non-transformed human cell lines, using a standard 72-h MTT cytotoxicity assay [Haselsberger K et al, ibid].

HCT116 = assay: 72-h MTT cytotoxicity assay, HCT116; format: cell-based; conditions: Homo sapiens, HCT-116, 72 h; HCT116, Colon carcinoma; read-out: Anti-proliferative activity, 72-h MTT IC50
Method: as §1

NaCat = assay: 72-h MTT cytotoxicity assay, NaCat; format: cell-based; conditions: Keratinocyte, Human keratinocytes, read-out: Anti-proliferative activity, 72-h MTT IC50
Method: as §1

U2OS = assay: 72-h MTT cytotoxicity assay, U2OS; format: cell-based; conditions: Homo sapiens, Osteosracoma, read-out: Anti-proliferative activity, 72-h MTT IC50
Method: as §1

WI38 = assay: 72-h MTT cytotoxicity assay, WI38; format: cell-based; conditions: Homo sapiens, WI-38, 72 h; WI38, Lung fibroblasts; read-out: Anti-proliferative activity, 72-h MTT IC50
Method: as §1

carcinoma cell lines = assay: 72-h MTT panel, average carcinomas; format: cell-based; conditions: Homo sapiens, average over carcinoma cell lines, read-out: Anti-proliferative activity, 72-h MTT IC50, Average carcinomas
Method: as §1
(§2) This differential selectivity further supports the notion that the bisarylsulfonamides modulate cellular HDM2 function. It is known that HDM2 amplification is particularly common in soft tissue sarcomas and osteosarcomas [Momand J et al, ibid; Bartel F, Meye A, Wurl P, Kappler M, Bache M, Lautenschlager C, Grunbaum U, Schmidt H, Taubert H; Int. J. Cancer 2001; 95: 168-175].

[1] = tested on: non-transformed human cell lines; assay: 72-h MTT panel, average non-transformed; format: cell-based; conditions: average over non-transformed cell lines, read-out: Anti-proliferative activity, 72-h MTT IC50, Average non-transformed
Method: as §1, §2

H1299 = assay: Combination treatment with cisplatin or etoposide, MTT, H1299; format: cell-based, human
Description: (§3) It is well established that radiotherapy and most current forms of chemotherapy cause extensive genetic damage and induction of the p53-dependent apoptotic pathway, which determines the important role of this tumor suppressor protein in cancer therapy. HDM2, on the other hand, as a transcriptional product and negative regulator pf p53, would destabilise p53 and diminish its pro-apoptotic function. Inhibitors of the p53-HDM2 negative feedback loop (e.g. compounds disrupting the p53-HDM2 complex) are expected to synergise with cytotoxic agents for induction of p53 and subsequent apoptosis. […] Both chemotherapeutic agents were used in the concentration range of 100-0.19 μM.

SJSA-1 = assay: Combination treatment with cisplatin or etoposide, MTT, SJSA-1; format: cell-based, human
Description: as §3

MCF7 or H1299 cells = assay: Cell cycle distribution, propidium iodide flow cytometry; format: cell-based, human; conditions: 5 times IC50
Method: Cells were stained with propidium iodide and the cell cycle position was determined using a flow cytometer.

H1299 cells = assay: Caspase activity (casp ACE assay), H1299; format: cell-based, human; conditions: five times the IC50
Method: (§4) In more detail: (A) Cells were treated with […] [IC50] of compound 2 or cisplatinum and collected at the time points indicated. Cell lysates were prepared, the caspase activity was determined using the casp ACE assay and values were plotted on a graph. (B) Cells were treated with 5 times [IC50] of compound 2 or cisplatinum and collected at the time points indicated. AGS cells were also incubated with compound 2 in the presence of a caspase inhibitor Z-VAD.fmk. Cell lysates were prepared, the caspase activity was determined using the casp ACE assay and values were plotted on a graph.
(§5) To characterise the apoptosis-inducing properties of bisarylsulfonamides caspase ⅓ activty was measured. AGS or H1299 cells were treated with a low concentration of compound 2 or cisplatin corresponding to twice the IC50 value (FIG. 6A). Morphological changes were detected in 10-20% of cells by 72 hours corresponding to an induction of caspase activity first detected at 48 hours, increasing by 72 hours. We also treated AGS and H1299 cells with higher concentrations corresponding to five times the IC50 (FIG. 6B). In this experiment we included a […], Z-VAD.fmk to determine the caspase responsible.

AGS cells = assay: Caspase activity (casp ACE assay), AGS; format: cell-based, human; conditions: five times the IC50, compared with cisplatin treatment
Method: as §4, §5

p53 = p53 reporter gene assay (U2OS-derived luciferase reporter cell line); conditions: for Fold induction of luciferase activity: compared to basal luciferase activity, 16-h time point, at concentration of maximal induction; for Concentration (test compound concentration at which the p53 induction was maximal): p53 reporter, U2OS-derived cell line
[2] = 2 added 6 hours before etoposide
[3] = 2 added prior to the treatment with cisplatin

SMILES | IC50 (Lovo) [µM] | IC50 (HCT116) [µM] | IC50 (NaCat) [µM] | IC50 (U2OS) [µM] | IC50 (WI38) [µM] | IC50 (carcinoma cell lines) [µM] | IC50 [1] [µM] | IC50 of etoposide, fold lower in cells pre-treated with 2 (H1299; [2]) [fold] | potency increase of cisplatin (H1299; [3]) [fold] | IC50 (H1299; Homo sapiens, NCI-H1299, MTT, 72 hours, Table 5, read-out: IC50, agent alone) [µM] | IC50 of etoposide, fold lower in cells pre-treated with 2 (SJSA-1; [2]) [fold] | potency increase of cisplatin (SJSA-1; [3]) [fold] | IC50 (SJSA-1; Homo sapiens, MTT, 72 hours, Table 5, read-out: IC50, agent alone) [µM] | cell cycle arrest (MCF7 or H1299 cells) | sub-G1 cells, indicative of apoptosis (MCF7 or H1299 cells) | caspase activity (H1299 cells) | caspase activity (AGS cells) | Fold induction of luciferase activity (p53) [fold] | Concentration (test compound concentration at which the p53 induction was maximal) (p53) [µM]
O=[N+]([O-])c1cc(S(=O)(=O)Nc2ccc(Cl)cc2)sc1Cl [Compound 2, 5-Chloro-4-nitrothiophene-2-sulfonic acid (4-chlorophenyl)-amide] | 2.1 | 2.8 | 9.3 | 6.2 | 22.7 | 3.1 ± 1.2 | 21 ± 3.1 | 25 | 16 | 5.1 | 726 | 357 | 14 | no detectable arrest at any phase of the cell cycle | induced sub-G1 cells | detected by four hours | only weak caspase activity was induced by 24 hours | 231 | 6
O=[N+]([O-])c1cc(S(=O)(=O)Nc2ccc(F)cc2)sc1Cl [Compound 3, 5-Chloro-4-nitrothiophene-2-sulfonic acid (4-fluorophenyl)amide] | 2.3 | 3.5 | 10.5 | 8.2 | 21.1 | 3.8 ± 1.8 | 18.7 ± 3.1 |  |  |  |  |  |  |  |  |  |  | 200 | 6
O=[N+]([O-])c1cc(S(=O)(=O)Nc2ccc(C(F)(F)F)cc2)sc1Cl [Compound 6, 5-Chloro-4-nitrothiophene-2-sulfonic acid (4-trifluoromethylphenyl)amide] | 3.9 | 6 | 10.6 | 10.2 | 30 | 4.9 ± 2.3 | 27.1 ± 4.9 |  |  |  |  |  |  |  |  |  |  | 84 | 5.5
